Read-outs that look alike come from different tables or passages of the source.
Legend:
[1] = test system: K562/ADR leukemia transplanted tumor; assay: Experiment 2-1: inhibition of leukemia transplanted tumor in nude mice (BBM, IM); assay type: in vivo, BALB/c-nu nude mice; settings: K562/ADR xenograft, 100 mg/kg each drug, intragastric, 2 times a day, 14 days, Day 23; for Tumor inhibition rate (%): control = 0; for Tumor weight: x ± s
Description: Leukemia cell lines: K562/ADR (ADM-resistant human chronic granulocytic leukemia cell line);
(§1) Animals: BALB/c-nu nude mice
(§2) Under sterile conditions, the above tumor cells were collected in the logarithmic growth phase, and were injected by subcutaneous injection in an amount of 1×10^7/0.2 mL/nude mice (cell viability>95%) into the right subaxillary of the nude mice, thus establishing leukemia transplated tumor models of in nude mice. The mice were administered from the third day after the inoculation. The treated group was intragastrically administered at the experimentally designed amount, the negative control group was intragastrically administered with sterile water, and the positive control group was intragastrically administered with IM. Each mouse was intragastrically administered in 0.4 ml each time and 2 times a day. The administrations were successive for 14 days. The day before administration was deemed as Day 0 and the body weight and tumor size of the mice were determined every 5 days to produce a dynamic plot on body weight and tumor growth. On Day 23, the mice were sacrificed and the tumors were taken out and weighed. The tumor inhibition rate (%) was calculated after the effect of the medicament based on a tumor inhibition rate of the control group being zero.

[2] = Experiment 2-1: body weight of tumor-bearing nude mice; assay type: in vivo, BALB/c-nu nude mice; settings: 100 mg/kg each drug, intragastric, 2 times a day, 14 days, x ± s, n=3; for Body weight (g) Final: final (Day 23)
Description: as §2

[3] = test system: KCL-22 (chronic myeloid leukemia cell line); assay: MTT cell viability, 72 h, single drugs and combination; assay type: cell-based; settings: Homo sapiens, read-out: CV(%) cell viability
Source text: (§3) Leukemia cell lines: K562 (chronic myeloid leukemia cell line), K562/ADR (doxorubicin(ADM)-resistant human chronic granulocytic leukemia cell line), KCL-22 (chronic myeloid leukemia cell line), KCL-22 M (human chronic granulocytic leukemia cell line mutant), CML-BC (KCL-28 patient's cells), all of which are donated by Cancer Research Institute of Zhejiang University, China; KU812 (chronic myeloid leukemia cell line), purchased from Fuxiang Bio-tech Co. Ltd., Shanghai, China.
(§4) 1. […] Well-growing leukemia cells were obtained and inoculated into wells of a 96-well cell culture plate at 5000 cells/well. Respective compounds of various concentrations were added, mixed uniformly, and incubated (5% CO2) at 37° C. for 72 hours. Then the cell viability was determined by the MTT method.
(§5) 2. Determine the inhibitory effects of bisbenzylisoquinoline in combination with IM on leukemia cells in vitro. The pretreatment of the cells was the same as in a). The control group was not treated with the compound while administered. In the experimental group, compounds were added respectively to the concentration under which the IC50 (μg/mL) of the compounds in step 1 achieves. As to the combination group, the two compounds were added together into the same group of wells. After 72 hours of incubation, the MTT method was used for the determination of cell viability. The cell viability of the control group was set to 100% in this experiment, and the BBM/TTD, IM single drug and combined effects on cell viability (100%) were calculated.

[4] = test system: KU812 (chronic myeloid leukemia cell line); assay: as above; assay type: cell-based; settings: Homo sapiens, KU812, 72 h; read-out: CV(%) cell viability
Source text: as §3, §4, §5

[5] = test system: K562 (chronic myeloid leukemia cell line); assay: as above; assay type: cell-based; settings: Homo sapiens, read-out: CV(%) cell viability
Source text: as §3, §4, §5

[6] = test system: CML-BC (KCL-28 patient's cells); assay: as above; assay type: cell-based; settings: read-out: CV(%) cell viability
Source text: as §3, §4, §5

[7] = test system: K562/ADR (doxorubicin(ADM)-resistant human chronic granulocytic leukemia cell line); assay: as above; assay type: cell-based; settings: read-out: CV(%) cell viability
Source text: as §3, §4, §5

[8] = test system: KCL-22 M (human chronic granulocytic leukemia cell line mutant); assay: as above; assay type: cell-based; settings: read-out: CV(%) cell viability
Source text: as §3, §4, §5

[9] = test system: peripheral blood leucocyte of a normal human being; settings: drug concentration 0.5 μg/mL to 10 μg/mL; cited from earlier work
[10] = test system: human leukemia Jurkat cells; settings: cited from earlier work
[11] = Experiment 2-2: body weight of tumor-bearing nude mice; assay type: in vivo, BALB/c-nu nude mice; settings: 50 mg/kg each drug, intragastric, 2 times a day, 14 days, x ± s, n=3; for Body weight (g) Final: final (Day 20)
Description: as §2, with “the sixth” for “the third”, “Day 20,” for “Day 23,”, “tumors are” for “tumors were”

[12] = test system: K562/ADR leukemia transplanted tumor; assay: Experiment 2-2: inhibition of leukemia transplanted tumor in nude mice (TTD, IM); assay type: in vivo, BALB/c-nu nude mice; settings: K562/ADR xenograft, 50 mg/kg each drug, intragastric, 2 times a day, 14 days, Day 20; for Tumor inhibition rate (%): control = 0; for Tumor weight: x ± s
Description: Leukemia cell lines: K562/ADR (ADM-resistant human chronic myeloid leukemia cell line);
as §1
as §2, with “the sixth” for “the third”, “Day 20,” for “Day 23,”, “tumors are” for “tumors were”

## COc1cc2c3cc1Oc1c(OC)c(OC)cc4c1[C@@H](Cc1ccc(O)c(c1)Oc1ccc(cc1)C[C@@H]3N(C)CC2)N(C)CC4 [BBM, 6,6′,7-trimethoxy-2,2′-dimethylberbaman-12-ol]
[1]
  Tumor inhibition rate (%): 63.66%
  Tumor weight: 0.25 ± 0.34 g
[2]
  Body weight (g) Final: 18.57 ± 2.28 g
  Body weight (g) Initial: 21.23 ± 0.23 g
[3]; KCL-22, BBM 6.5 μg/mL (IC50 dose), 72 h, MTT
  viability at 6.5 µg/mL: 50%
[4]
  viability at 1.5 µg/mL: 51.6%
[5]; K562, BBM 1.6 μg/mL (IC50 dose), 72 h, MTT
  viability at 1.6 µg/mL: 44.5%
[6]
  viability at 1.5 µg/mL: 54.4%
[7]; K562/Adr
  viability at 1.5 µg/mL: 46.3%
[8]; KCL-22, 72 h
  viability at 1.7 µg/mL: 52.4%
[9]
  cytotoxic effect: no evident cytotoxic effect
[10]; drug concentration 0.5 μg/mL
  cell viability: 93.69%
[10]; drug concentration 10 μg/mL
  cell viability: 14.85%

## Cc1ccc(NC(=O)c2ccc(CN3CCN(C)CC3)cc2)cc1Nc1nccc(-c2cccnc2)n1 [IM]
[1]
  Tumor inhibition rate (%): 71.98%
  Tumor weight: 0.19 ± 0.27 g
[11]
  Body weight (g) Final: 18.40 ± 0.52 g
  Body weight (g) Initial: 21.47 ± 0.21 g
[2]
  Body weight (g) Final: 17.37 ± 2.75 g
  Body weight (g) Initial: 21.00 ± 0.12 g
[3]; KCL-22, 72 h
  viability at 0.05 µg/mL: 51.1%
[3]; KCL-22, IM 0.08 μg/mL (IC50 dose), 72 h, MTT
  viability at 0.08 µg/mL: 48.5%
[4]
  viability at 0.01 µg/mL: 56.7%
  viability at 0.03 µg/mL: 53.3%
[5]; K562, 72 h
  viability at 0.02 µg/mL: 57.9%
  viability at 0.03 µg/mL: 44.2%
[6]
  viability at 0.01 µg/mL: 57.1%
  viability at 0.02 µg/mL: 57.1%
[7]; K562/ADR, IM 0.16 μg/mL (IC50 dose), MTT
  viability at 0.16 µg/mL: 42.5%
[7]; K562/Adr
  viability at 0.2 µg/mL: 42.3%
[8]; KCL-22 M, IM 3.27 μg/mL (IC50 dose), 72 h, MTT
  viability at 3.27 µg/mL: 48%
[12]
  Tumor inhibition rate (%): 12.26%
  Tumor weight: 0.81 ± 0.52 g

## COc1ccc2cc1Oc1ccc(cc1)C[C@H]1c3cc(c(OC)cc3CCN1C)Oc1c(OC)c(OC)cc3c1[C@H](C2)N(C)CC3 [TTD, 6,6′,7,12-tetramethoxy-2,2′dimethylberbamine]
[11]
  Body weight (g) Final: 18.93 ± 1.53 g
  Body weight (g) Initial: 21.30 ± 0.10 g
[12]
  Tumor inhibition rate (%): 10.18%
  Tumor weight: 0.83 ± 0.76 g

Source: patent publication US20150238488A1, “DRUG COMPOSITION FOR TREATING TUMORS AND APPLICATION THEREOF” (priority 2012, published 2015)
